System: ddY mice
Assay: Oxylipin analysis of plasma and brain regions of juvenile offspring after maternal glyphosate exposure
Assay type: in vivo, mouse
Conditions: juvenile offspring (P28), maternal 0.095% glyphosate
Description: Collection of blood and brain samples and oxylipin analysis. Water or 0.095% glyphosate was given to pregnant mice from E5 to P21, as described above. The male offspring were separated from their mothers at weaning (P21). At juvenile (P28) stage, mice were deeply anesthetized with isoflurane and plasma was collected. Subsequently, brains were removed from the skulls. For Western blot analysis, brain regions such as prefrontal cortex (PFC), hippocampus, and striatum, were dissected from brain on ice. The samples were stored at −80° C. before assay. For oxylipin analysis, plasma was collected after isoflurane anesthesia at juvenile (P28) stage. Subsequently, PFC, hippocampus, and striatum were dissected from brain on ice, and the samples were stored at −80° C. before assay. Measurement of eicosanoids in the plasma and brain regions was performed at UC Davis using the previous method (4).

O=C(O)CNCP(=O)(O)O [glyphosate]
4,5-DiHDPE level (plasma): 1.527 ± 0.112 nmol/mL | 5(6)-EpETrE level (plasma): 24.279 ± 3.524 nmol/mL | 5,6-DiHETrE level (plasma): 0.417 ± 0.047 nmol/mL | 5-HEPE level (plasma): 8.117 ± 1.251 nmol/mL | 5-HETE level (plasma): 2.137 ± 0.335 nmol/mL | 5-oxo-ETE level (plasma): 20.987 ± 2.839 nmol/mL | 6-keto-PGF1a level (plasma): 0.252 ± 0.043 nmol/mL | 7(8)-EpDPE level (plasma): 195.343 ± 16.718 nmol/mL | 8(9)-EpETE level (plasma): 0.863 ± 0.138 nmol/mL | 8(9)-EpETrE alt level (plasma): 3.325 ± 0.409 nmol/mL | 8(9)-EpETrE level (plasma): 13.892 ± 2.938 nmol/mL | 8-HEPE level (plasma): 7.652 ± 0.970 nmol/mL | 8-HETE level (plasma): 7.349 ± 0.718 nmol/mL | 9(10)-EpOME level (plasma): 28.326 ± 4.243 nmol/mL | 9,10,13-TriHOME level (plasma): 5.220 ± 0.403 nmol/mL | 9,12,13-TriHOME level (plasma): 12.758 ± 1.096 nmol/mL | 9-HETE level (plasma): 0.056 ± 0.012 nmol/mL | 9-HODE level (plasma): 17.293 ± 2.482 nmol/mL | 10(11)-EpDPE level (plasma): 13.285 ± 1.234 nmol/mL | 11(12)-EpETE level (plasma): 2.579 ± 0.284 nmol/mL | 11(12)-EpETrE level (plasma): 6.360 ± 1.002 nmol/mL | 11,12-,15-TriHETrE level (plasma): 0.300 ± 0.072 nmol/mL | 11,12-DiHETrE level (plasma): 0.394 ± 0.045 nmol/mL | 11-HETE level (plasma): 1.949 ± 0.131 nmol/mL | 12(13)-EpOME level (plasma): 38.512 ± 4.378 nmol/mL | 12-HEPE level (plasma): 92.380 ± 15.026 nmol/mL | 12-HETE level (plasma): 90.069 ± 11.494 nmol/mL | 12-oxo-ETE level (plasma): 500.173 ± 99.031 nmol/mL | 13(14)-EpDPE level (plasma): 8.177 ± 0.873 nmol/mL | 13,14-DiHDPE level (plasma): 0.530 ± 0.056 nmol/mL | 13-HODE level (plasma): 66.733 ± 9.200 nmol/mL | 14(15)-EpETE level (plasma): 2.316 ± 0.258 nmol/mL | 14(15)-EpETrE level (plasma): 4.038 ± 0.637 nmol/mL | 14,15-DiHETrE level (plasma): 0.575 ± 0.051 nmol/mL | 15(16)-EpODE level (plasma): 14.493 ± 1.929 nmol/mL | 15(S)-HETrE level (plasma): 0.743 ± 0.167 nmol/mL | 15-HETE level (plasma): 1.985 ± 0.228 nmol/mL | 15-oxo-ETE level (plasma): 0.746 ± 0.105 nmol/mL | 16(17)-EpDPE level (plasma): 7.978 ± 0.799 nmol/mL | 16,17-DiHDPE level (plasma): 1.955 ± 0.201 nmol/mL | 17(18)-EpETE level (plasma): 4.845 ± 0.480 nmol/mL | 17-HDoHE level (plasma): 1386.287 ± 316.090 nmol/mL | 19(20)-EpDPE level (plasma): 19.092 ± 1.307 nmol/mL | 19,20-DiHDPE level (plasma): 6.507 ± 0.444 nmol/mL | EKODE level (plasma): 12.405 ± 2.140 nmol/mL | LTB3 level (plasma): 2.540 ± 0.525 nmol/mL | PGD2 level (plasma): 0.138 ± 0.010 nmol/mL | PGE2 level (plasma): 0.704 ± 0.010 nmol/mL | PGF2a level (plasma): 0.462 ± 0.048 nmol/mL | TXB2 level (plasma): 0.548 ± 0.069 nmol/mL | 4,5-DiHDPE level (striatum): 1.331 ± 0.320 pmol/g | 5(6)-EpETrE level (striatum): 2286.424 ± 589.971 pmol/g | 5,6-DiHETrE level (striatum): 0.655 ± 0.058 pmol/g | 5-HEPE level (striatum): 1.966 ± 0.253 pmol/g | 5-HETE level (striatum): 21.009 ± 1.874 pmol/g | 5-oxo-ETE level (striatum): 177.806 ± 23.342 pmol/g | 6-keto-PGF1a level (striatum): 70.151 ± 4.942 pmol/g | 7(8)-EpDPE level (striatum): 3684.482 ± 1464.079 pmol/g | 8(9)-EpETE level (striatum): 2.863 ± 1.693 pmol/g | 8(9)-EpETrE alt level (striatum): 256.271 ± 63.811 pmol/g | 8(9)-EpETrE level (striatum): 7513.6 ± 2879.9 pmol/g | 8-HEPE level (striatum): 1.198 ± 0.106 pmol/g | 8-HETE level (striatum): 7.063 ± 1.134 pmol/g | 9(10)-EpOME level (striatum): 64.909 ± 24.089 pmol/g | 9,10,13-TriHOME level (striatum): 35.219 ± 5.532 pmol/g | 9,12,13-TriHOME level (striatum): 59.110 ± 9.487 pmol/g | 9-HETE level (striatum): 2.001 ± 0.403 pmol/g | 9-HODE level (striatum): 42.211 ± 2.648 pmol/g | 10(11)-EpDPE level (striatum): 283.118 ± 111.688 pmol/g | 11(12)-EpETE level (striatum): 2.950 ± 0.707 pmol/g | 11(12)-EpETrE level (striatum): 1056.655 ± 383.807 pmol/g | 11,12-,15-TriHETrE level (striatum): 28.513 ± 2.432 pmol/g | 11,12-DiHETrE level (striatum): 1.461 ± 0.114 pmol/g | 11-HETE level (striatum): 263.508 ± 14.043 pmol/g | 12(13)-EpOME level (striatum): 75.548 ± 26.478 pmol/g | 12-HEPE level (striatum): 16.777 ± 3.707 pmol/g | 12-HETE level (striatum): 402.213 ± 68.023 pmol/g | 12-oxo-ETE level (striatum): 2383.322 ± 205.470 pmol/g | 13(14)-EpDPE level (striatum): 196.586 ± 72.402 pmol/g | 13,14-DiHDPE level (striatum): 0.849 ± 0.088 pmol/g | 13-HODE level (striatum): 61.551 ± 3.988 pmol/g | 14(15)-EpETE level (striatum): 2.368 ± 0.640 pmol/g | 14(15)-EpETrE level (striatum): 991.031 ± 327.438 pmol/g | 14,15-DiHETrE level (striatum): 2.399 ± 0.255 pmol/g | 15(16)-EpODE level (striatum): 0.837 ± 0.335 pmol/g | 15(S)-HETrE level (striatum): 13.863 ± 0.898 pmol/g | 15-HETE level (striatum): 312.592 ± 16.237 pmol/g | 15-oxo-ETE level (striatum): 15.203 ± 3.961 pmol/g | 16(17)-EpDPE level (striatum): 186.178 ± 73.985 pmol/g | 16,17-DiHDPE level (striatum): 1.427 ± 0.114 pmol/g | 17(18)-EpETE level (striatum): 7.282 ± 2.840 pmol/g | 17-HDoHE level (striatum): 7832.089 ± 1004.299 pmol/g | 19(20)-EpDPE level (striatum): 373.365 ± 128.458 pmol/g | 19,20-DiHDPE level (striatum): 8.734 ± 0.672 pmol/g | EKODE level (striatum): 14.223 ± 1.256 pmol/g | LTB3 level (striatum): 74.130 ± 28.033 pmol/g | PGD2 level (striatum): 404.389 ± 30.557 pmol/g | PGE2 level (striatum): 61.254 ± 3.057 pmol/g | PGF2a level (striatum): 367.138 ± 24.248 pmol/g | TXB2 level (striatum): 219.314 ± 15.121 pmol/g
